We go through 13 molecules from ChEMBL document CHEMBL1141631, “Novel ketooxazole based inhibitors of fatty acid amide hydrolase (FAAH)” (Bioorg Med Chem Lett, 2008).

A short description of data set [1]: Aqueous solubility in water. Format: physicochemical.
The target of data set [2] is T1, Fatty-acid amide hydrolase 1 (Homo sapiens, UniProt O00519).
T1 sequence (O00519 whole entry): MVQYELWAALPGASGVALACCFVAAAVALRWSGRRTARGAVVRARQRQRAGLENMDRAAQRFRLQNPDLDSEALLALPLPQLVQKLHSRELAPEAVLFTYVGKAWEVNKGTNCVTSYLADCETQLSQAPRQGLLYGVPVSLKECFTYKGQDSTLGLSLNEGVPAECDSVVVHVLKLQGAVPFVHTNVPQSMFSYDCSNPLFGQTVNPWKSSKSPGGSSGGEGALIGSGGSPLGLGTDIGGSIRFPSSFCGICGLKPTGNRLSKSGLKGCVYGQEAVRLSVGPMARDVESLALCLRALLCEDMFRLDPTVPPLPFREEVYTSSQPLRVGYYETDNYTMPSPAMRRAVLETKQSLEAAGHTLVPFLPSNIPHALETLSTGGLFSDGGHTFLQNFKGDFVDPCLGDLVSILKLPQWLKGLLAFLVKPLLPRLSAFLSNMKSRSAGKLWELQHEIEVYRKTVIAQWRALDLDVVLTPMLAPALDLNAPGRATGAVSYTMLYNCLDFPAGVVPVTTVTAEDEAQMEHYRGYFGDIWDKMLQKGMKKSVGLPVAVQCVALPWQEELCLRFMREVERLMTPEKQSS
In words: Inhibition of human FAAH.

Data set [3] is filed under the species Rattus norvegicus. Kind of data set: Reversal of tactile allodynia in spinal nerve ligated rat model. Format: functional.
The species named for data set [4] is Rattus norvegicus. In words: Toxicity in spinal nerve ligated rat model assessed as motor impairment by rotarod test. Particulars: in vivo. Format: organism-based.
Data set [5] has as its system Rattus norvegicus. In words: Reversal of tactile allodynia in spinal nerve ligated rat model at 4 mg/kg, iv followed by infusion of 6 mg/kg/hr after 6 hrs. Format: functional, organism-based.
Data set [6] can be described thus: Plasma concentration in spinal nerve ligated rat model at 4 mg/kg, iv followed by infusion of 6 mg/kg/hr after 6 hrs. Format: ADME, organism-based.

In brackets after ≈: the same amount, converted by molar mass. Activity calls are given as the source filed them. The calls are words filed in the database; no cut-off is given here.

As usually defined, the solubility is how much of the substance goes into solution per volume. In general, IC50 refers to the concentration that gives 50% inhibition. Higher therefore signals lower potency. What is called ED50 is the midpoint of the dose-response relation.

For the molecule `CC(C)c1ccc(CN2CCC(CCCC(=O)c3ncco3)CC2)cc1`, the solubility in data set [1] is greater than 400 µg/mL. The molecule also gave an IC50 in data set [2] of 3.6 nM. The ED50 in the data set filed under Rattus norvegicus [3] was found to be 7.3 mg/kg. Besides, the Activity entry in the data set listed under Rattus norvegicus [4] is recorded as “Non-toxic”. Besides, the result in the data set on Rattus norvegicus [5] was Active. Further, the concentration at 6 h in data set [6] amounted to 1200 nM. As for `COc1ccc(CN2CCC(CCCC(=O)c3ncco3)CC2)cc1`, half-maximal inhibition in data set [2] (IC50) required 130 nM.

In turn, `O=C(CCCC1CCN(C(=O)CCC2CCCCC2)CC1)c1ncco1` had an IC50 in data set [2] of 3 nM. Still for that read-out and setting: next, `O=C(CCCC1CCN(C(=O)OCc2ccccc2)CC1)c1ncco1`: 4 nM; `O=C(CCCC1CCN(S(=O)(=O)c2ccccc2)CC1)c1ncco1`: 2.5 nM. On the same count and under the same terms, next, `COc1cccc(CN2CCC(CCCC(=O)c3ncco3)CC2)c1`: 34 nM. Still for that read-out and setting: the same measure for `CC(C)(C)OC(=O)N1CCC(CCCC(=O)c2ncco2)CC1`: 2 nM; for `O=C(CCCC1CCN(C(=O)c2ccccc2)CC1)c1ncco1`: 77 nM. Regarding `O=C(CCCCCCc1ccccc1)c1ncc(-c2ccccn2)o1`, the solubility in data set [1] came to 16 µg/mL (≈ 47.8 µM). As to `CC(C)S(=O)(=O)N1CCC(CCCC(=O)c2ncco2)CC1`, the IC50 in data set [2] is 140 nM. Molecule `O=C(CCCC1CCNCC1)c1ncco1` had an IC50 in data set [2] of 5700 nM. With `O=C(CCCC1CCN(C(=O)CCc2ccccc2)CC1)c1ncco1`, the IC50 in data set [2] was 22 nM.

Molecule `O=C(CCCCCCc1ccccc1)c1ncco1` displayed an IC50 in data set [2] of 43 nM.
